Data from patent publication US20160058771A1, “ALPHA-2 ADRENOCEPTOR AND SIGMA RECEPTOR LIGAND COMBINATIONS” (LABORATORIOS DEL DR. ESTEVE, S.A., priority 2013, published 2016).
Entries after “also recorded” stand apart in the source; their conditions may differ. Counter-ions that a name gives are not always drawn.

What was measured:
male Swiss CD-1 mice [1] = assay: Tail-flick test (radiant heat, acute thermal pain); type: in vivo
Protocol: Tail-flick test is a classical model of acute thermal pain (D'Amour and Smith, 1941) Pain sensitivity is measured in response to a radiant heat beam focused on the mouse tail. Latency to the first pain response is recorded as a measure of thermal pain sensitivity. The withdrawal is a classic nocifensive reflex that removes the body apart from the source of pain.
Male Swiss CD-1 mice weighing between 30 and 35 g (Charles River, Barcelona, Spain) were used for all the experiments. The drugs evaluated were compound 63.HCl and clonidine hydrochloride and guanfacine, as alpha-2 adrenergic agonists. Compound 63.HCl was injected intraperitoneally (i.p.) in a volume of 10 ml/kg in 0.5% hydroxypropyl methyl cellulose (HPMC) and clonidine or guanfacine were administered subcutaneously (s.c.) dissolved in isotonic saline (0.9% NaCl) solution, in a volume of 5 ml/kg. Control animals received the same volume of vehicle.
Antinociception was assessed using the radiant heat tail-flick test as described by Moncada et al., 2003. Briefly, the animals were restrained in a Plexiglas tube and placed on the tail-flick apparatus. The radiant heat source was focused on the proximal portion of the tail at about […] of the tip. Vehicle tail-flick latency (VL) was determined using a stimulus intensity adjusted to elicit a mean reaction time in the range of 2-4 s. Following vehicle or compound administration, test latencies (TL) were obtained at 30 min. A cut off time of 10 s was employed in order to prevent tissue damage. All experiments were performed under blind conditions.
Data were expressed as means±S.E.M of the […] (s.).
(§1) In order to generate dose-response curves, raw data were converted to % maximum possible antinociceptive effect using the following equation:
(§2) % MPE=[(TL−VL)/(Cut off−VL)]·100
where MPE: maximum possible antinociceptive effect; TL: test latencies and VL: vehicle latency. 2.1. Effects of the Compound 63.HCl Alone or Combined with the Alpha-2 Agonist Clonidine

male Swiss CD-1 mice [2] = assay: Hot-plate test (50° C., latency to hind paw licking); type: in vivo; conditions: for analgesic effect (latency to hind paw licking): vs control, FIG. 6
Text: The hot plate is another classical test of acute thermal nociception. This test consists of introducing mice into an open-ended cylindrical space with a floor consisting of a metallic plate that is heated to a constant temperature. Typical behavioural responses in mice are paw-licking and jumping (Le Bars et al., 2001)
Male Swiss CD-1 mice weighing between 30 and 35 g (Charles River, Barcelona, Spain) were used for all the experiments. The drugs evaluated were the Sigma ligand Compound 63.HCl and the alpha-2 adrenergic agonists clonidine, guanfacine, and dexmedetomidine. Compound 63.HCl was injected intraperitoneally (i.p.) in a volume of 10 ml/kg in 0.5% hydroxypropyl methyl cellulose (HPMC), whereas clonidine, guanfacine and dexmedetomidine were administrated subcutaneously (s.c.) in saline, in a volume of 5 ml/kg. Control animals received the same volume of vehicle. The hot plate test was done 30 min after compound's administration. Mice were placed individually on the hot-plate at 50° C. and the reaction time starting from the placement of the mouse on the hot plate to the time of hind paw licking (HPL) was measured with a stopwatch. An independent untreated group of animals from each strain was used to evaluate the basal latencies and five times those values were chosen as the cut-off time to avoid tissue damage.
Data were expressed as means±S.E.M of the paw withdrawal latency (s).
as §1, §2
where MPE: maximum possible antinociceptive effect; TL: test latencies and VL: vehicle latency. 3.1. Effect of the Sigma Ligands Compound 63.HCl Alone or Combined with the Alpha-2 Agonist Clonidine

## Clc1cccc(Cl)c1N=C1NCCN1 [clonidine]
Male Swiss CD-1 mice [1]; Mus musculus, clonidine alone, sc, 0.125-1 mg/kg, % MPE dose-response, FIG. 2, read-out: ED50 (50% effective dose of clonidine)
  ED50: 0.18 mg/kg
Male Swiss CD-1 mice [2]; Mus musculus, clonidine alone, sc, 0.125-1 mg/kg, FIG. 5, read-out: ED50 (50% effective dose of clonidine)
  ED50: 0.3 mg/kg

## N=C(N)NC(=O)Cc1c(Cl)cccc1Cl [guanfacine]
Male Swiss CD-1 mice [1]; guanfacine alone 1.25 mg/kg s.c., vs vehicle, FIG. 3
  analgesic effect (tail withdrawal latency): not effective compared to vehicle
Male Swiss CD-1 mice [2]; guanfacine alone 5 mg/kg s.c.
  analgesic effect (latency to hind paw licking): not effective compared to control group

## Cc1cc(OCCN2CCOCC2)nn1-c1ccc2ccccc2c1 [compound 63.HCl, 4-{2-[5-methyl-1-(naphthalen-2-yl)-1H-pyrazol-3-yloxy]ethyl}morpholine hydrochloride]
Male Swiss CD-1 mice [1]; compound 63.HCl 40 mg/kg ip with clonidine 0.125-1 mg/kg sc, displacement to the left of the curve, FIG. 2
  effect on the dose-response curve of clonidine: potentiates the antinociceptive effect of clonidine
Male Swiss CD-1 mice [1]; compound 63.HCl alone, 5, 10 and 40 mg/kg ip, 30 min before test, vs vehicle, FIG. 1
  antinociceptive effect (tail withdrawal latency): failed to produce a statistically significant antinociceptive effect
Male Swiss CD-1 mice [2]; Compound 63.HCl 40 mg/kg ip with clonidine 0.125-1 mg/kg sc, displacement to the left of the curve, FIG. 5
  effect on the dose-response curve of clonidine: potentiated the antinociceptive effect of clonidine
Male Swiss CD-1 mice [2]; Compound 63.HCl alone 40 mg/kg ip, 30 min before test, FIG. 4, FIG. 5, hydrochloride
  antinociceptive effect (latency to hind paw licking): failed to produce a statistically significant antinociceptive effect; also recorded: showed no activity

## Cc1cccc([C@H](C)c2cnc[nH]2)c1C [dexmedetomidine]
Male Swiss CD-1 mice [2]; dexmedetomidine alone 0.01 mg/kg s.c.
  analgesic effect (latency to hind paw licking): not effective compared to control group
